{
  "source": "patent US20090170893A1",
  "about": "“NOVEL HYDRATE FORM” (priority 2006, published 2009)",
  "experiment": "storage stability of the solid form (polymorphic conversion)",
  "format": "physicochemical",
  "data": [
    {"smiles": "COc1c(N2C[C@@H]3CCCN[C@@H]3C2)c(F)cc2c(=O)c(C(=O)O)cn(C3CC3)c12.Cl", "note": "[Example 1, 1-cyclopropyl-7-([S,S]-2,8-diazabicyclo-[4.3.0]non-8-yl)-6-fluoro-1,4-dihydro-8-methoxy-4-oxo-3-quinolinecarboxylic acid]", "values": [
      {"measurement": "stability / polymorphic conversion on prolonged storage", "setting": "prolonged storage over 3 weeks at ambient conditions", "value": "stable and exhibit no polymorphic conversion"},
      {"measurement": "stability / polymorphic conversion on prolonged storage", "setting": "prolonged storage over 3 weeks at high humidity accelerated conditions", "value": "stable and exhibit no polymorphic conversion"}
    ]}
  ]
}
